Data set [1] can be described thus: Kinetic aqueous solubility. As to conditions: phosphate buffered saline (PBS) pH 7.4, pH 7.4, aqueous buffer, kinetic from dmso stock, Kinetic solubility (Ksol), (μg/ml), PBS pH 7.4, 200 μM (2% DMSO), RT.
Experimental: Phosphate buffered saline (PBS) pH 7.4 was prepared using PBS tablets as per the manufacturer's instructions. Compounds and marker stocks are prepared at 10 mM in DMSO.
Compounds were incubated at 200 μM (2% DMSO) in Millipore—MSS LB PC 10 or Porvair—ref: 36004 plates in the presence of the prepared PBS pH 7.4 solution for 1.5 h, at RT, with gentle shaking. […] The samples were then analysed in a 96 well UV Star analysis plate on a plate reader from 220 nm to 500 nm at 10 nm increments.
The concentration of the samples was calculated against the standard curves.
For the next data set, the target named is recombinant human PKM2 (Homo sapiens (Human), UniProt P14618). Put plainly: Human PKM2 activation assay (Kinase-Glo Plus luminescence). As to conditions: for EC50: activation of recombinant human PKM2, 4-parameter logistic fit, read-out: hPKM2 EC50; for Emax: read-out: hPKM2 Emax (%). Type of data set: biochemical. How it is done: Compound activation of recombinant human PKM2 pyruvate kinase activity was determined by biochemical assay. N-terminal His-tagged hPKM2 was sourced from R&D Systems and its substrates phosphoenolpyruvate (PEP) and ADP from Sigma-Aldrich and 2BScientific Ltd, respectively. The Kinase-Glo® Plus luminescence assay was from Promega. All other reagents were from Sigma-Aldrich. Test Compounds were prepared as 10 mM DMSO stocks and dilution series prepared in DMSO for direct dilution into Assay Buffer comprising 50 mM imidazole, 50 mM KCl, 7 mM MgCl2, 0.01% Tween20, 0.05% BSA (pH 7.2).
Human PKM2 was diluted into Assay Buffer comprising 50 mM imidazole, 50 mM KCl, 7 mM MgCl2, 0.01% Tween20, 0.05% BSA (pH 7.2) to a final concentration of 5 pM. Enzyme-Assay Buffer mix was dispensed into a 384-well shallow-well white-walled plate (PerkinElmer) and Test Compounds added by acoustic dispense (Echo®, Labcyte Inc.).
After 60 minutes' incubation on an orbital shaker (300 rpm, 26° C.), enzyme activity was quantified by the luminescent detection of generated ATP. Kinase-Glo® Plus reagent was added to each well and the plates incubated for a further 15 minutes on an orbital shaker in the dark (300 rpm, 26° C.) before luminescence measurement on a plate reader (PHERAstar® FSX, BMG Labtech).
EC50 and Emax values were determined from 4-parameter logistic fits of compound concentration-response curves.

Molecules are shown by their SMILES. Values after ≈ are worked out from the molar mass of the structure shown.

17 molecules from patent US20240409542A1, “NOVEL COMPOUNDS” (Sitryx Therapeutics Limited, priority 2021, published 2024) can be followed below.

Sequence of recombinant human PKM2 (P14618 whole entry): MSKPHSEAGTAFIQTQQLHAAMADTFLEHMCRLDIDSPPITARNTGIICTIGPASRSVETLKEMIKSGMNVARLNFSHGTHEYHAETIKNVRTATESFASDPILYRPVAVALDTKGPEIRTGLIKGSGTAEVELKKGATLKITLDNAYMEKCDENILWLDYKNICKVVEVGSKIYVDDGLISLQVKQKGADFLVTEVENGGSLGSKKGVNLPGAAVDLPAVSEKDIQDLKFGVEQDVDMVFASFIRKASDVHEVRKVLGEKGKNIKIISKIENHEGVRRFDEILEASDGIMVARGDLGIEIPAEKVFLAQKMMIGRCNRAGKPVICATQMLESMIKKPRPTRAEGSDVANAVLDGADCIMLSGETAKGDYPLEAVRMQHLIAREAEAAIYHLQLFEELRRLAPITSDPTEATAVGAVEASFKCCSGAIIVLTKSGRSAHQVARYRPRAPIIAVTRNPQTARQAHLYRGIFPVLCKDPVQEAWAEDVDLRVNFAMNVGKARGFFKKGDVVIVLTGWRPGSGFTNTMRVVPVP

Regarding `Cn1c2c(c3cnn(Cc4n[nH]cc4C(N)=O)c(=O)c31)CCN(S(C)(=O)=O)C2` [Example 17, 3-((5-methyl-7-(methylsulfonyl)-4-oxo-4,5,6,7,8,9-hexahydro-3H-pyrido [4′,3′:4,5]pyrrolo[2,3-d]pyridazin-3-yl)methyl)-1H-pyrazole-4-carboxamide], in data set [1], the kinetic solubility at 1.5 h was 73.1 µg/mL (≈ 180 µM). Besides, on recombinant human PKM2, the EC50 is 901 nM and the Emax was 98.8%.

`Cn1c2c(c3cnn(Cc4csc5ccncc45)c(=O)c31)CCN(S(C)(=O)=O)C2` [Example 34, 5-methyl-7-(methylsulfonyl)-3-(thieno[3,2-c]pyridin-3-ylmethyl)-3,5,6,7,8,9-hexahydro-4H-pyrido[4′,3′:4,5]pyrrolo[2,3-d]pyridazin-4-one] returned a solubility (kinetic) at 1.5 h in data set [1] of 1.8 µg/mL (≈ 4.19 µM). In addition, on recombinant human PKM2, the EC50 was 440 nM and the Emax was found to be 82.6%.

In turn, `COCCNS(=O)(=O)N1CCc2c(n(C)c3c(=O)n(Cc4ccc(OC)nc4)ncc23)C1` [Example 28, N-(2-methoxyethyl)-3-((6-methoxypyridin-3-yl)methyl)-5-methyl-4-oxo-3,4,5,6,8,9-hexahydro-7H-pyrido[4′,3′:4,5]pyrrolo[2,3-d]pyridazine-7-sulfonamide] yielded a kinetic solubility at 1.5 h in data set [1] greater than 92.5 µg/mL. Moreover, at recombinant human PKM2, the EC50 is 385 nM and the Emax worked out at 56.4%.

In the case of `COc1ccc(S(=O)(=O)N2CCc3c(n(C)c4c(=O)n(Cc5ccc6c(c5)CCO6)ncc34)C2)cc1` [Example 23, 3-((2,3-dihydrobenzofuran-5-yl)methyl)-7-((4-methoxyphenyl)sulfonyl)-5-methyl-3,5,6,7,8,9-hexahydro-4H-pyrido[4′,3′:4,5]pyrrolo[2,3-d]pyridazin-4-one], on recombinant human PKM2, the EC50 was found to be 313 nM and the Emax came out at 58.3%.

In data set [1], `Cn1c2c(c3cnn(Cc4cccc5[nH]ncc45)c(=O)c31)CCN(S(C)(=O)=O)C2` [Example 32, 3-((1H-indazol-4-yl)methyl)-5-methyl-7-(methylsulfonyl)-3,5,6,7,8,9-hexahydro-4H-pyrido[4′,3′:4,5]pyrrolo[2,3-d]pyridazin-4-one] showed a kinetic solubility at 1.5 h of 16.2 µg/mL (≈ 39.2 µM). At recombinant human PKM2, the EC50 was 365 nM and the Emax came to 94.6%.

In the case of `Cn1c2c(c3cnn(Cc4c[nH]c5ccc(F)cc45)c(=O)c31)CCN(S(C)(=O)=O)C2` [Example 38, 3-((5-fluoro-1H-indol-3-yl)methyl)-5-methyl-7-(methylsulfonyl)-6,7,8,9-tetrahydro-3H-pyrido[4′,3′:4,5]pyrrolo[2,3-d]pyridazin-4(5H)-one], on recombinant human PKM2, the concentration giving a half-maximal response (EC50) was determined as 759 nM and the Emax came to 93.2%.

Molecule `Cn1c2c(c3cnn(Cc4cccc(S(N)(=O)=O)c4)c(=O)c31)CCN(S(C)(=O)=O)C2` [Example 18, 3-((5-methyl-7-(methylsulfonyl)-4-oxo-4,5,6,7,8,9-hexahydro-3H-pyrido [4′,3′:4,5]pyrrolo[2,3-d]pyridazin-3-yl)methyl)benzenesulfonamide] returned a kinetic solubility at 1.5 h in data set [1] of 18.3 µg/mL (≈ 40.5 µM). Further, on recombinant human PKM2, the EC50 is 394 nM and the Emax stood at 58.7%.

Regarding `C[C@H](N)c1cccc(Cn2ncc3c4c(n(C)c3c2=O)CN(S(C)(=O)=O)CC4)c1` [Example 26, (S)-3-(3-(1-aminoethyl)benzyl)-5-methyl-7-(methylsulfonyl)-3,5,6,7,8,9-hexahydro-4H-pyrido[4′,3′:4,5]pyrrolo[2,3-d]pyridazin-4-one], the kinetic solubility at 1.5 h in data set [1] was greater than 83 µg/mL. Besides, on recombinant human PKM2, the EC50 was determined as 372 nM and the Emax was 81.1%.

With `COc1ccc(Cn2ncc3c4c(n(C)c3c2=O)CN(S(=O)(=O)c2ccccc2)CC4)c(F)c1` [Example 21, 3-(2-fluoro-4-methoxybenzyl)-5-methyl-7-(phenylsulfonyl)-3,5,6,7,8,9-hexahydro-4H-pyrido[4′,3′:4,5]pyrrolo[2,3-d]pyridazin-4-one], the solubility (kinetic) at 1.5 h in data set [1] was found to be 1.04 µg/mL (≈ 2.16 µM). Also, at recombinant human PKM2, the EC50 stood at 986 nM and the maximal response (Emax) is 71.4%.

`Cn1c2c(c3cnn(Cc4ccsc4C(N)=O)c(=O)c31)CCN(S(C)(=O)=O)C2` [Example 14, 3-((5-methyl-7-(methylsulfonyl)-4-oxo-4,5,6,7,8,9-hexahydro-3H-pyrido [4′,3′:4,5]pyrrolo[2,3-d]pyridazin-3-yl)methyl)thiophene-2-carboxamide] came in with a solubility (kinetic) at 1.5 h in data set [1] of 41.3 µg/mL (≈ 98.1 µM). Moreover, at recombinant human PKM2, the EC50 worked out at 512 nM and the Emax is 102%.

`Cn1c2c(c3cnn(Cc4ccc5c(c4)CC(C)(C)O5)c(=O)c31)CCN(S(C)(=O)=O)C2` [Example 24, 3-((2,2-dimethyl-2,3-dihydrobenzofuran-5-yl)methyl)-5-methyl-7-(methylsulfonyl)-3,5,6,7,8,9-hexahydro-4H-pyrido[4′,3′:4,5]pyrrolo[2,3-d]pyridazin-4-one]: at recombinant human PKM2, the EC50 stood at 188 nM and the Emax was found to be 90.9%.

In data set [1], `Cn1c2c(c3cnn(Cc4c[nH]c5cc(F)ccc45)c(=O)c31)CCN(S(C)(=O)=O)C2` [Example 39, 3-((6-fluoro-1H-indol-3-yl)methyl)-5-methyl-7-(methylsulfonyl)-6,7,8,9-tetrahydro-3H-pyrido[4′,3′:4,5]pyrrolo[2,3-d]pyridazin-4(5H)-one] gave a solubility (kinetic) at 1.5 h of 1.09 µg/mL (≈ 2.54 µM). In addition, on recombinant human PKM2, the EC50 was found to be 217 nM and the Emax was 92.7%.

Regarding `COc1ccc(S(=O)(=O)N2CCc3c(n(C)c4c(=O)n(Cc5ccsc5C(N)=O)ncc34)C2)cc1` [Example 22, 3-((7-((4-methoxyphenyl)sulfonyl)-5-methyl-4-oxo-4,5,6,7,8,9-hexahydro-3H-pyrido[4′,3′:4,5]pyrrolo[2,3-d]pyridazin-3-yl)methyl)thiophene-2-carboxamide], the kinetic solubility at 1.5 h in data set [1] worked out at 2.53 µg/mL (≈ 4.93 µM). Also, at recombinant human PKM2, the EC50 was found to be 385 nM and the Emax came out at 76.8%.

`Cn1c2c(c3cnn(Cc4cccc(N5CCCC5)n4)c(=O)c31)CCN(S(C)(=O)=O)C2` [Example 19, 5-methyl-7-(methylsulfonyl)-3-((6-(pyrrolidin-1-yl)pyridin-2-yl)methyl)-3,5,6,7,8,9-hexahydro-4H-pyrido[4′,3′:4,5]pyrrolo[2,3-d]pyridazin-4-one] registered a kinetic solubility at 1.5 h in data set [1] of 5.42 µg/mL (≈ 12.2 µM). Further, on recombinant human PKM2, the EC50 came out at 869 nM and the Emax is 63.8%.

In the case of `Cn1c2c(c3cnn(Cc4coc5ccccc45)c(=O)c31)CCN(S(C)(=O)=O)C2` [Example 16, 3-(benzofuran-3-ylmethyl)-5-methyl-7-(methylsulfonyl)-3,5,6,7,8,9-hexahydro-4H-pyrido[4′,3′:4,5]pyrrolo[2,3-d]pyridazin-4-one], the solubility (kinetic) at 1.5 h in data set [1] was 7.58 µg/mL (≈ 18.4 µM). Also, at recombinant human PKM2, the EC50 stood at 129 nM and the Emax amounted to 76.6%.

As to `COc1ccc(S(=O)(=O)N2CCc3c(n(C)c4c(=O)n(Cc5c[nH]c6cnccc56)ncc34)C2)cc1` [Example 35, 3-((1H-pyrrolo[2,3-c]pyridin-3-yl)methyl)-7-((4-methoxyphenyl)sulfonyl)-5-methyl-3,5,6,7,8,9-hexahydro-4H-pyrido[4′,3′:4,5]pyrrolo[2,3-d]pyridazin-4-one], at recombinant human PKM2, the concentration giving a half-maximal response (EC50) stood at 569 nM and the maximum response (Emax) is 78.1%.

Regarding `COCCS(=O)(=O)N1CCc2c(n(C)c3c(=O)n(Cc4ccc(OC)nc4)ncc23)C1` [Example 27, 7-((2-methoxyethyl)sulfonyl)-3-((6-methoxypyridin-3-yl)methyl)-5-methyl-3,5,6,7,8,9-hexahydro-4H-pyrido[4′,3′:4,5]pyrrolo[2,3-d]pyridazin-4-one], at recombinant human PKM2, the EC50 came to 919 nM and the Emax came to 78%.

Broadly, the solubility (kinetic) is solubility judged after dilution from a stock solution rather than from solid. As a reminder, the EC50 is the concentration at which the effect is half-maximal. Usually Emax stands for the size of the effect at its maximum, as opposed to the concentration needed.
